In US6461997B1, “Triazole sulfones having herbicidal activity” (Monsanto Technology LLC, priority 1999, dated 2002):

How the values were obtained:
PANDI (fall panicum) = assay: Pre-plant incorporated (PPI) herbicidal activity, warm season; format: in vivo, Panicum dichotomiflorum; conditions: for PPI activity GR80, PANDI: pre-plant incorporated, lowest tested rate with 80% or greater inhibition, about 14 days
Procedure: (§1) In another set of tests, the pre-plant incorporated (PPI) activity of compounds of this invention was evaluated on the same species as for the pre-emergence tests described above. In the PPI tests the following procedure, designed to simulate PPI application, was used.
(§2) A pre-prepared topsoil mixture (described above) was placed in a pot and compacted to a depth of 1.0 to 1.25 cm from the top of the pot. Seeds of each of several monocotyledonous and dicotyledonous annual plant species were placed on top of the soil. A sufficient quantity of soil to cover the seeds and level fill the pot was weighed into an open container. A known amount of the test compound was dissolved or suspended in an organic solvent and applied by spraying to this cover soil. The cover soil was thoroughly mixed to distribute the test compound throughout the cover soil, and was then applied as a cover layer over the seeds. Untreated soil was used as a cover layer for control pots. After treatment the plants were placed in a greenhouse where they received 0.64 cm of overhead irrigation. All subsequent watering consisted of a light overhead mist and/or subirrigation as needed for germination and growth. Tables 9 and 10 below relate to warm season plant species which were placed after pre-emergence treatment in a greenhouse with a 30/21° C. day/night temperature regime. Tables 11 and 12 below relates to cool season plant species placed after pre-emergence treatment in a greenhouse or growth chamber with an 18/13° C. day/night temperature regime. Only the compounds of Examples 1, 6, 8, 11, 13 and 15-20 were included in PPI tests.
(§3) Approximately 14 days after planting and treating, the plants were observed and herbicidal efficacy recorded as percent inhibition by comparison with untreated plants.

ALOMY (blackgrass) = assay: Pre-emergence herbicidal activity, cool season; format: in vivo, Alopecurus myosuroides; conditions: GR80 = lowest tested rate (300, 100, 30, 10 g/ha) with 80% or greater inhibition; approx. 14 days after treating; 18/13° C.
How it was run: (§4)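 GR80 values derive from percent inhibition relative to untreated plants, read roughly 14 days after sowing and pre-emergence soil-surface treatment (compound in 50:50 acetone/water; rates typically 10, 30, 100, 300 g/ha). Warm-season weeds grew at 30/21° C day/night, cool-season ones at 18/13° C; an asterisk marks activity without reaching 80% at the highest rate.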

AMARE (redroot pigweed) = assay: Pre-plant incorporated (PPI) herbicidal activity, warm season; format: in vivo, Amaranthus retroflexus; conditions: for PPI activity (GR80) AMARE: pre-plant incorporated, GR80 = lowest tested rate with 80% or greater inhibition, approx. 14 days after treating, 30/21° C.
Procedure: as §1, §2, §3

SINAR (wild mustard) = assay: Pre-emergence herbicidal activity, cool season; format: in vivo, Sinapis arvensis; conditions: lowest tested rate with 80% or greater inhibition; rates 300, 100, 30, 10 g/ha; about 14 days
How it was run: as §4

POROL (common purslane) = assay: Pre-emergence herbicidal activity, warm season; format: in vivo, Portulaca oleracea; conditions: GR80 = lowest tested rate (300, 100, 30, 10 g/ha) with 80% or greater inhibition; approx. 14 days after treating; 30/21° C.
How it was run: as §4

AVEFA (wild oat) = assay: Post-emergence herbicidal activity, cool season; format: in vivo, Avena fatua; conditions: abraded plants sprayed at 300, 100, 30 and 10 g/ha; about 14 days after treatment
How it was run: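 GR80 values derive from percent growth inhibition scored approximately 14 days post-spray against abraded, unsprayed controls under an 18/13 °C regime. Foliar application to sandblast-abraded plants used rates of 300, 100, 30 and 10 g/ha in 50:50 acetone/water at 3,100 l/ha.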

POAAN (annual bluegrass) = assay: Pre-plant incorporated (PPI) herbicidal activity, cool season; format: in vivo, Poa annua; conditions: weed, PPI application
Procedure: as §1, §2, §3

[1] = test system: SORHA (johnsongrass (seedling)); assay: Pre-plant incorporated (PPI) herbicidal activity, warm season; format: in vivo, Sorghum halepense; conditions: for PPI activity GR80, SORHA: pre-plant incorporated, lowest tested rate with 80% or greater inhibition, about 14 days
Procedure: as §1, §2, §3

C=C(CC(F)(F)S(=O)(=O)c1ncn(C(=O)N(CC)CC)n1)C[Si](C)(C)C [Example 20]
PPI activity GR80, PANDI (PANDI (fall panicum)): 100 g/ha
Pre-emergence activity (GR80) ALOMY (ALOMY (blackgrass)): 100 g/ha
Percent inhibition AMARE (AMARE (redroot pigweed); PPI application, 10 g/ha): 0%
Percent inhibition AMARE (AMARE (redroot pigweed); PPI application, 30 g/ha): 0%
Percent inhibition AMARE (AMARE (redroot pigweed); PPI application, 100 g/ha): 50%
Percent inhibition AMARE (AMARE (redroot pigweed); PPI application, 300 g/ha): 100%
Percent inhibition AMARE (AMARE (redroot pigweed); PPI application, 900 g/ha): 100%
PPI activity (GR80) AMARE (AMARE (redroot pigweed)): 300 g/ha
Pre-emergence activity GR80, SINAR (SINAR (wild mustard)): [empty]
Pre-emergence activity (GR80) POROL (POROL (common purslane)): 300 g/ha
Post-emergence activity GR80, AVEFA (AVEFA (wild oat)): [empty]
Percent inhibition POAAN (POAAN (annual bluegrass); 10 g/ha): 0%
Percent inhibition POAAN (POAAN (annual bluegrass); 30 g/ha): 30%
Percent inhibition POAAN (POAAN (annual bluegrass); 100 g/ha): 60%
Percent inhibition POAAN (POAAN (annual bluegrass); 300 g/ha): 90%
Percent inhibition POAAN (POAAN (annual bluegrass); 900 g/ha): 99%
Percent inhibition SORHA ([1]; PPI application, 30 g/ha): 0%
Percent inhibition SORHA ([1]; PPI application, 100 g/ha): 20%
Percent inhibition SORHA ([1]; PPI application, 300 g/ha): 80%
Percent inhibition SORHA ([1]; PPI application, 900 g/ha): 80%
PPI activity GR80, SORHA [1]: 100 g/ha

CCSC(F)(F)S(=O)(=O)c1ncn(C(=O)N(CC)CC)n1 [Example 8, 1-(N,N-diethylcarbamoyl)-3-[difluoro(ethylthio)methylsulfonyl]-1,2,4-triazole]
inhibition at 30 g/ha (PANDI (fall panicum); Panicum dichotomiflorum, PPI application, 30 g/ha, read-out: Percent inhibition PANDI): 95%
inhibition at 100 g/ha (PANDI (fall panicum); Panicum dichotomiflorum, PPI application, 100 g/ha, read-out: Percent inhibition PANDI): 100%
inhibition at 300 g/ha (PANDI (fall panicum); Panicum dichotomiflorum, PPI application, 300 g/ha, read-out: Percent inhibition PANDI): 100%
inhibition at 900 g/ha (PANDI (fall panicum); Panicum dichotomiflorum, PPI application, 900 g/ha, read-out: Percent inhibition PANDI): 100%
PPI activity GR80, PANDI (PANDI (fall panicum)): 30 g/ha
Pre-emergence activity (GR80) ALOMY (ALOMY (blackgrass)): 100 g/ha
inhibition at 30 g/ha (AMARE (redroot pigweed); Amaranthus retroflexus, PPI application, 30 g/ha, read-out: Percent inhibition AMARE): 100%
inhibition at 100 g/ha (AMARE (redroot pigweed); Amaranthus retroflexus, PPI application, 100 g/ha, read-out: Percent inhibition AMARE): 100%
inhibition at 300 g/ha (AMARE (redroot pigweed); Amaranthus retroflexus, PPI application, 300 g/ha, read-out: Percent inhibition AMARE): 100%
inhibition at 900 g/ha (AMARE (redroot pigweed); Amaranthus retroflexus, PPI application, 900 g/ha, read-out: Percent inhibition AMARE): 100%
PPI activity (GR80) AMARE (AMARE (redroot pigweed)): 100 g/ha
Pre-emergence activity GR80, SINAR (SINAR (wild mustard)): [empty]
Pre-emergence activity (GR80) POROL (POROL (common purslane)): 300 g/ha
Post-emergence activity GR80, AVEFA (AVEFA (wild oat)): [empty]
inhibition at 30 g/ha (POAAN (annual bluegrass); Poa annua, 30 g/ha, read-out: Percent inhibition POAAN): 100%
inhibition at 100 g/ha (POAAN (annual bluegrass); Poa annua, 100 g/ha, read-out: Percent inhibition POAAN): 100%
inhibition at 300 g/ha (POAAN (annual bluegrass); Poa annua, 300 g/ha, read-out: Percent inhibition POAAN): 100%
inhibition at 900 g/ha (POAAN (annual bluegrass); Poa annua, 900 g/ha, read-out: Percent inhibition POAAN): 100%
inhibition at 30 g/ha ([1]; Sorghum halepense, PPI application, 30 g/ha, read-out: Percent inhibition SORHA): 100%
inhibition at 100 g/ha ([1]; Sorghum halepense, PPI application, 100 g/ha, read-out: Percent inhibition SORHA): 90%
inhibition at 300 g/ha ([1]; Sorghum halepense, PPI application, 300 g/ha, read-out: Percent inhibition SORHA): 100%
inhibition at 900 g/ha ([1]; Sorghum halepense, PPI application, 900 g/ha, read-out: Percent inhibition SORHA): 100%
PPI activity GR80, SORHA [1]: 30 g/ha
